Measurements: the supplement of paper PMC10307832

Tests used:
Experiment in all cases: relative viability (nuclei count vs DMSO), 5 days (fraction); higher = more cells survive
[1] = compound: C1COCCN1CC2=CC(=O)C(=CO2)OCCCCCSC3=C4C=CC(=CC4=NC=C3)C(F)(F)F [EHT 1864] + CS(=O)(=O)N1CCN(Cc2cc3nc(-c4cccc5[nH]ncc45)nc(N4CCOCC4)c3s2)CC1 [Pictilisib] (partner 1 µM)
Method in brief: (§1)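 Medians of duplicate plates are given as relative viability. That measure is the nuclei count in treated wells divided by the count in vehicle wells. Counts were taken on 4× images of lung cancer cell lines in 1536-well plates, 5 days after pin-tool dosing the day after seeding with one drug alone or a fixed anchor-drug dose plus five library-drug doses (not always all listed) in √10 steps.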

[2] = compound: C1COCCN1CC2=CC(=O)C(=CO2)OCCCCCSC3=C4C=CC(=CC4=NC=C3)C(F)(F)F [EHT 1864] + Cc1nc(NC(=O)N2CCC[C@H]2C(N)=O)sc1-c1ccnc(C(C)(C)C(F)(F)F)c1 [Alpelisib] (partner 2 µM)
Method in brief: as §1

[3] = compound: C1COCCN1CC2=CC(=O)C(=CO2)OCCCCCSC3=C4C=CC(=CC4=NC=C3)C(F)(F)F [EHT 1864] + N=C(N)NC(=N)NCCc1ccccc1 [Phenformin] (partner 250 µM)
Method in brief: as §1

[4] = compound: C1COCCN1CC2=CC(=O)C(=CO2)OCCCCCSC3=C4C=CC(=CC4=NC=C3)C(F)(F)F [EHT 1864] + NC(=O)Nc1cc(-c2cccc(F)c2)sc1C(=O)N[C@H]1CCCNC1 [AZD7762] (partner 0.2 µM)
Method in brief: as §1

Cell Line	relative viability ([1]; first compound 0.04 µM)	relative viability ([1]; first compound 0.1265 µM)	relative viability ([1]; first compound 0.4 µM)	relative viability ([1]; first compound 1.265 µM)	relative viability ([1]; first compound 4 µM)	relative viability ([2]; first compound 0.04 µM)	relative viability ([2]; first compound 0.1265 µM)	relative viability ([2]; first compound 0.4 µM)	relative viability ([2]; first compound 1.265 µM)	relative viability ([2]; first compound 4 µM)	relative viability ([3]; first compound 0.04 µM)	relative viability ([3]; first compound 0.4 µM)	relative viability ([3]; first compound 1.265 µM)	relative viability ([3]; first compound 4 µM)	relative viability ([4]; first compound 0.04 µM)	relative viability ([4]; first compound 0.4 µM)	relative viability ([4]; first compound 1.265 µM)	relative viability ([4]; first compound 4 µM)	relative viability ([3]; first compound 0.1265 µM)	relative viability ([4]; first compound 0.1265 µM)
HCC-15	0.737	0.577	0.793	0.656	0.731	0.902	0.797	0.903	0.823	0.842	0.491	0.461	0.383	0.52	1.01	1.29	1.36	1.19		
HCC-44	0.412	0.37	0.604	0.573	0.694	0.801	0.703	0.751	0.695	0.857	0.193	0.203	0.218	0.221	1.01	0.934	1.03	1.01	0.13	0.896
HCC-78	0.262	0.209	0.242	0.205	0.25	0.29	0.31	0.328	0.367	0.491	0.635	0.694	0.746	0.733	0.82	0.67	0.602	0.422	0.604	0.59
IA-LM	0.421		0.38	0.387	0.384	0.875	0.419	0.799	0.677	0.639										
NCI-H520	0.346	0.27	0.308	0.324	0.336	0.967	0.954	0.883	0.889	0.876	0.517	0.785	0.669	0.711					0.422	
NCI-H661	0.403	0.435	0.481	0.437	0.415	0.596	0.672	0.527	0.465	0.531	0.339	0.301	0.302	0.269					0.273	
NCI-H1299	0.71	0.669	0.725	0.729	0.684	0.973	0.974	0.983	1.05	1.08										
NCI-H1563	0.62	0.637	0.638	0.656	0.669	0.853	1.03	1.04	0.96	0.805	0.672	0.675	0.677	0.685					0.64	
NCI-H1648															0.72	0.609	0.662	0.866		
NCI-H1650	0.597	0.351	0.579	0.548	0.442							0.478	0.435	0.39						
NCI-H1703	0.222	0.245	0.26	0.251	0.266	0.323	0.319	0.399	0.373	0.366					0.128	0.118	0.128	0.15		
NCI-H2009	0.798	0.664	0.852	0.718	0.761	1.16	1.13	1.11	1.12	0.971	0.467	0.493	0.362	0.436					0.468	
NCI-H2023	0.244	0.208	0.223	0.212	0.271	0.513	0.597	0.564	0.694	0.546	0.405	0.371	0.358	0.347					0.417	
NCI-H2228	0.414	0.357	0.267	0.417	0.443	0.776	0.813	0.732	0.594	0.713	0.37	0.345	0.288	0.52					0.232	
NCI-H2342											0.546	0.621	0.523	0.678	0.426	0.472	0.51	0.492	0.52	0.438
SK-LU-1	0.619	0.519	0.619	0.542	0.583	1.02	1.02	0.928	0.996	0.815	0.538	0.52	0.575	0.587					0.36	
SK-MES-1	0.398	0.361	0.34	0.337	0.315	0.934	0.823	0.884	0.92	0.906	0.726	0.605	0.577	0.602					0.67	
SW 1573	0.525	0.364	0.462	0.521	0.511	0.772	0.896	0.737	0.608	0.719	0.436	0.347	0.334	0.382					0.34	
UMC-11	0.829	0.591	0.903	0.63	0.883	0.887	1.01	0.976	0.962	1.02	0.356		0.324	0.31					0.275	
